In PMC2551583, “Optimizing bioavailability of oral administration of small peptides through pharmacokinetic and pharmacodynamic parameters: The effect of water and timing of meal intake on oral delivery of Salmon Calcitonin” (BMC Clinical Pharmacology, 2008):

Assay: Plasma sCT pharmacokinetics after a single dose, phase I crossover study
Type: in vivo, healthy postmenopausal women
Experimental: The study was a randomized, partially-blind, placebo-controlled, single dose, exploratory crossover study to assess the PK and PD of 0.8 mg SMC021 in healthy postmenopausal women when taken in the morning with different volumes of water (50 or 200 ml) and at different times before a meal (10, 30, or 60 minutes). Subjects were blinded to treatment with SMC021 and placebo, but were not blinded to water volume intake and pre-meal dosing time. The PK and PD profiles of Miacalcic® 200 IU NS were additionally assessed in an open-label manner in a small subset of subjects.
Females fulfilling the inclusion criteria of being generally healthy ambulatory female volunteers, aged between 40–70 years and having passed a natural or surgically-induced menopause at least 5 years before entering the study and being without diseases or medications known to affect bone metabolism were allowed to participate. The study was of a 5-period, 10-treatment, 56-sequence crossover design. Subjects were randomly allocated to a sequence. The study contained 10 possible treatments, comprising a combination of study medication of SMC021, placebo, and Miacalcic® NS), water volume given with the tablet (50/200 ml water, and dosing time to meal (10, 30 or 60 minutes pre-meal) as outlined in Table 1. To reduce the burden of treatment to the subjects, an incomplete cross-over design was used. […]
The concentration of plasma sCT was measured by as chemiluminescence-based assay that previously have been described. Values measured below the lower limit of quantification of 2.5 pg/ml was assigned the value of 2.5 pg/ml. […] The lower limit of quantification (LLOQ) was 2.5 pg/mL. The quality control (QC) samples, ranging from 2.5 pg/mL to 700 pg/mL, were prepared daily and measured in 3 to 5 replicates. The overall accuracy and precision (CV) of QC samples, measured on 11 different days was 101.3% and 10.1% for 2.5 pg/mL concentration and 94.3% and 6.0% for 700 pg/mL concentration, respectively. […]

## salmon calcitonin [sCT]
Minimal if any effect of water and meal time
  time to maximum plasma sCT concentration after drug intake: approximately 15 minutes
Oral 0.8 mg with 50 ml water vs 200 IU nasal spray
  fold sCT AUC0–4 with 50 ml of water versus nasal calcitonin: 4 fold
Oral 0.8 mg, Cmax and AUC0–4, irrespective of meal timing (10, 30, 60 min)
  fold higher absorption of sCT with 50 ml as compared with 200 ml of water: two-fold increase
